Legend:
Zinc finger protein GLI1 [1] = target: T1, Zinc finger protein GLI1 (Homo sapiens, UniProt P08151); experiment: Inhibition of GLI1 (unknown origin) transcriptional activity
T1 sequence (P08151 whole entry): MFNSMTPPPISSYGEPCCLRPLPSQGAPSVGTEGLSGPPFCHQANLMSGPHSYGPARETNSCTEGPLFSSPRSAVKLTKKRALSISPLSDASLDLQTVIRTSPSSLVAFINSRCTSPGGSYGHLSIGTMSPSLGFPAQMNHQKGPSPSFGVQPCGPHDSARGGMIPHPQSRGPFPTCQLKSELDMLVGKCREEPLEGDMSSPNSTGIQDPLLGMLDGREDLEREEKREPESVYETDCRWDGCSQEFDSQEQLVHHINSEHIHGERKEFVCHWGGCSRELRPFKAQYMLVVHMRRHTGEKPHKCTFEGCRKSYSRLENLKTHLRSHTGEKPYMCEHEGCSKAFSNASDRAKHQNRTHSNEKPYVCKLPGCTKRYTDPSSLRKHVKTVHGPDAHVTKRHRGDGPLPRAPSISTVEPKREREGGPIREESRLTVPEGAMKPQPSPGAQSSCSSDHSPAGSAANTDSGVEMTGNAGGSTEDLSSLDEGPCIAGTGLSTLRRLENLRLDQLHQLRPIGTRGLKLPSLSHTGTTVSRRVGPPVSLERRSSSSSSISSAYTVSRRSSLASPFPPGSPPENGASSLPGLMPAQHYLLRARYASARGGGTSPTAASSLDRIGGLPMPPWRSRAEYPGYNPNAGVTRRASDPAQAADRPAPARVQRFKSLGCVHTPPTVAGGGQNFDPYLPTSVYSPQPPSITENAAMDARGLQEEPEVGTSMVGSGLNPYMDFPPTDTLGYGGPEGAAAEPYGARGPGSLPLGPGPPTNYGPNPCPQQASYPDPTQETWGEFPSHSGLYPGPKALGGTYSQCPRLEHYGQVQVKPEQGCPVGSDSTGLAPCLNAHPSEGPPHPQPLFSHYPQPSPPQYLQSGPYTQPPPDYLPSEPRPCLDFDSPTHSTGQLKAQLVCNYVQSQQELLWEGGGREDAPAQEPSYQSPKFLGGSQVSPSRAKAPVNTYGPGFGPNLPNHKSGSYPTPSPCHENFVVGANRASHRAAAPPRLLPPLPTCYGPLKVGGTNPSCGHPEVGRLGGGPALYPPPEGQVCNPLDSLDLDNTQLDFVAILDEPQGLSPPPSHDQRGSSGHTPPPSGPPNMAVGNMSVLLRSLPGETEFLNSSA

Zinc finger protein GLI1 [2] = target: T1, Zinc finger protein GLI1; experiment: Inhibition of GLI1-mediated transcriptional activity in human HaCaT cells coexpressing luciferase

| Compound | IC50 (Zinc finger protein GLI1 [1]) | IC50 (Zinc finger protein GLI1 [2]) |
| --- | --- | --- |
| C[C@@]12C[C@H]3OC(=O)[C@@H]1CO[C@]14O[C@@]5([C@H]2C1=O)[C@@]3(C)OC(=O)[C@@]5(O)CC[C@H]1[C@H]4C[C@H]2O[C@]23CC=CC(=O)[C@]13C | 0.7 µM |  |
| C[C@]12C(=O)CC=CC1=CC[C@@H]1[C@@H]2CC[C@]2(O)C(=O)O[C@@]3(C)[C@H]4C[C@]5(C)[C@@H](CO[C@@]16O[C@@]32[C@H]5C6=O)C(=O)O4 | 4.2 µM |  |
| O[C@H]1[C@H]2c3cc4c(cc3CN3CCC(=C[C@@H]1O)[C@H]23)OCO4 [9,10-(methylenedioxy)-3,12-didehydrogalanthan-1alpha,2beta-diol] |  | 19 µM |
| CO[C@H]1C=C[C@@]23c4cc5c(cc4CN(C[C@@H]2O)[C@H]3C1)OCO5 [CHEBI:3914] |  | 4.7 µM |
| C[C@]12C(=O)C=CCC1=CC[C@@H]1[C@@H]2CC[C@]2(O)C(=O)O[C@@]3(C)[C@H]4C[C@]5(C)[C@@H](CO[C@@]16O[C@@]32[C@H]5C6=O)C(=O)O4 [NSC-287088] | 0.6 µM |  |
